Reference: ChEMBL document CHEMBL3046299, “Neonicotinoid substituents forming a water bridge at the nicotinic acetylcholine receptor” (J Agric Food Chem, 2009)

Experiments:
[1] = Displacement of [3H]IMI from nicotinic acetylcholine receptor in Drosophila melanogaster brain
Aphis gossypii = test: Insecticidal activity against adult Aphis gossypii (cotton aphid) in cucumber cotyledons assessed as mortality at 500 ppm treated for 5 secs before adult infestation measured after 72 hr; type: functional; details: in Cucumis sativus
Drosophila melanogaster = test: Displacement of [3H]IMI from nicotinic acetylcholine receptor in Drosophila melanogaster brain at Ki concentration

Compound	Ki [1] [µM]	mortality at 500 ppm (Aphis gossypii) [%]	inhibition (Drosophila melanogaster) [%]
O=[N+]([O-])/N=C1\NCCN1CCF	≥ 100	47	44
CN/C(=N/CC1CCOC1)N[N+](=O)[O-] (stereo not given) [DINOTEFURAN]	0.076	100	–
O=[N+]([O-])/N=C1\NCCN1CCCF	1.7	55	–
O=[N+]([O-])/N=C1\NCCN1CCCCl	3.6	55	–
O=[N+]([O-])/N=C1\N(CCC(O)C(F)(F)F)CCN1Cc1ccc(Cl)nc1 (stereo not given)	5	–	–
CC(=O)O/C(=C\CN1CCN/C1=N\[N+](=O)[O-])C(F)(F)F	16.3	–	–
O=[N+]([O-])/N=C1\N(CCCF)CCN1Cc1ccc(Cl)nc1	0.74	–	–
O=[N+]([O-])/N=C1\NCCN1C[C@@H]1C[C@@H]2O[C@@H]2C1	8.1	0	–
CCCN1CCN(Cc2ccc(Cl)nc2)/C1=N/[N+](=O)[O-]	0.89	–	–
O=[N+]([O-])/N=C1\NCCN1CCC(O)C(F)(F)F (stereo not given)	18.1	–	–
O=[N+]([O-])/N=C1\NCCN1Cc1ccc(Cl)nc1 [IMIDACLOPRID]	0.003	100	–
O=C(CCN1CCN/C1=N\[N+](=O)[O-])C(F)(F)F	≥ 100	0	43
C/C(CCN1CCN/C1=N\[N+](=O)[O-])=N\O	40.5	10	–
O=[N+]([O-])/N=C1\NCCN1CCCCF	3.5	27	–
CCCN1CCN/C1=N\[N+](=O)[O-]	12.8	31	–
O=[N+]([O-])/N=C1\NCCN1C[C@H]1C[C@@H]2O[C@@H]2C1	14.8	18	–
O=[N+]([O-])/N=C1\NCCN1CC1CC=CC1	20.1	20	–
CC(=O)CCN1CCN(Cc2ccc(Cl)nc2)/C1=N/[N+](=O)[O-]	6.1	–	–
O=[N+]([O-])/N=C1\NCCN1CC1CCOC1 (stereo not given)	0.11	100	–
CC(=O)CCN1CCN/C1=N\[N+](=O)[O-]	1.2	8	–
CN/C(=N\[N+](=O)[O-])NCc1cnc(Cl)s1 [CLOTHIANIDINE]	0.004	100	–
CO/N=C(\C)CCN1CCN/C1=N\[N+](=O)[O-]	61.2	2	–
